Patent US11364248B2 (AMGEN INC., priority 2017, dated 2022)

Legend:
[1] = molecular target: Mcl-1/Bim interaction (Homo sapiens (Human), UniProt Q07820); experiment: Cell Free Mcl-1: Bim Affinity Assay (Mcl-1 HTRF); assay type: binding; conditions: TR-FRET, recombinant human Mcl-1(171-327), biotin-Bim(51-76); read-out: Mel-1 HTRF IC50
Outline: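 TR-FRET competition assay: 0.1 nM His-tagged human Mcl-1(171-327) and 0.05 nM biotin-Bim(51-76) were pre-incubated 60 min with compound in 20 mM Hepes pH 7.5, 150 mM NaCl, Brij35, 1 mM DTT, then with Eu-anti-His/streptavidin-Xlent overnight. The 665/620 nm ratio was fitted by four-parameter model to IC50 (duplicates).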

[2] = tested on: OPM-2; experiment: Cell Viability Assay (OPM-2 10 FBS); assay type: cell-based, human; conditions: OPM-2 cells, 16 h, CellTiter-Glo, read-out: OPM-2 10% FBS IC50 IP
Outline: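 OPM-2 myeloma cells seeded at 3000 cells/well in RPMI 1640 with 10% FBS and exposed to serially diluted compounds for 16 h at 37° C., 5% CO2.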

Sequence of Mcl-1/Bim interaction (Q07820 171-327): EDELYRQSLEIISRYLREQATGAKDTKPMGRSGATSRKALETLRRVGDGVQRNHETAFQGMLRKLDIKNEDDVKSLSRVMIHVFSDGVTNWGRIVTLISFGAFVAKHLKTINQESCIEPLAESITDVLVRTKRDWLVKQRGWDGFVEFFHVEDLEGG

Row | IC50 [1] [nM] | SMILES | IC50 [2] [nM]
1 | 6.24 | C[C@@H]1CC[C@H]([C@H]2OC[C@@H](N(C)C)CO2)[C@@H]2CC[C@H]2CN2C[C@@]3(CCCc4cc(Cl)ccc43)COc3ccc(cc32)C(=O)NS(=O)(=O)C[C@@H]1C [Example 76, (1S,3′R,6′R,7′S,10′R,11′R)-6-chloro-7′-(cis-5-(dimethylamino)-1,3-dioxan-2-yl)-10′,11′-dimethyl-3,4-dihydro-2H,15′H-spiro[naphthalene-1,22′-[20]oxa[13]thia[1,14]diazatetracyclo [14.7.2.0~3,6~.0~19,24~]pentacosa[16,18,24]trien]-15′-one 13′,13′-dioxide] | 2480
2 | 0.704 | C[C@@H]1[C@@H](C)CCC[C@H]([C@H]2OC[C@](N)(CO)CO2)[C@@H]2CC[C@H]2CN2C[C@@]3(CCCc4cc(Cl)ccc43)COc3ccc(cc32)C(=O)NS1(=O)=O [Example 79, (1S,3′R,6′R,7′S,11′S,12′R)-7′-(cis-5-amino-5-(hydroxymethyl)-1,3-dioxan-2-yl)-6-chloro-11′,12′-dimethyl-3,4-dihydro-2H,15′H-spiro[naphthalene-1,22′-[20]oxa[13]thia[1,14]diazatetracyclo [14.7.2.0~3,6~.0~19,24~]pentacosa[16,18,24]trien]-15′-one 13′,13′-dioxide] | 829
3 | 5.71 | COC[C@H]1[C@@H](C)CCC[C@H]([C@H]2OC[C@@H](N(C)C)CO2)[C@@H]2CC[C@H]2CN2C[C@@]3(CCCc4cc(Cl)ccc43)COc3ccc(cc32)C(=O)NS1(=O)=O [Example 87, (1S,3′R,6′R,7′S,11′S,12′R)-6-chloro-7′-(cis-5-(dimethylamino)-1,3-dioxan-2-yl)-12′-(methoxymethyl)-11′-methyl-3,4-dihydro-2H,15′H-spiro[naphthalene-1,22′-[20]oxa[13]thia[1,14]diazatetracyclo [14.7.2.0~3,6~.0~19,24~]pentacosa[16,18,24]trien]-15′-one 13′,13′-dioxide] | 735
4 | 4.37 | COC[C@H]1[C@@H](C)CCC[C@H]([C@H]2OC[C@@H](N(C)C)CO2)[C@@H]2CC[C@H]2CN2C[C@@]3(CCCc4cc(Cl)ccc43)COc3ccc(cc32)C(=O)NS1(=O)=O [Example 88, (1S,3′R,6′R,7′S,11′S,12′R)-6-chloro-7′-(cis-5-(dimethylamino)-1,3-dioxan-2-yl)-12′-(methoxymethyl)-11′-methyl-3,4-dihydro-2H,15′H-spiro[naphthalene-1,22′-[20]oxa[13]thia[1,14]diazatetracyclo [14.7.2.0~3,6~.0~19,24~]pentacosa[16,18,24]trien]-15′-one 13′,13′-dioxide] | 335
